For orientation: IC50 means the concentration at which inhibition is half-maximal.

Drawing on US12030862B2, “Allosteric chromenone inhibitors of phosphoinositide 3-kinase (PI3K) for the treatment of disease” (Petra Pharma Corporation, priority 2021, dated 2024), this text covers IC50 for 15 compounds.

Structures are written as SMILES.

The target in experiment [1] is T1, PI3K-α (PIK3CA) wild-type (WT) (p110α/p85α complex) (Homo sapiens, UniProt P42336).
T1 construct: Recombinant, catalytically active human full length PIK3KA Wild-type and H1047R mutant were purchased as 1:1 complex; 6xHis (N); purchased EMD Millipore Sigma 14-602M
The experiment can be described thus: PI3K-Alpha kinase (PIK3CA) biochemical ADP-Glo assay, wild-type. As to conditions: 20 uM ATP, 1 h pre-incubation. The source says:
(§1) PI3K-Alpha kinase (PIK3CA) activity, wild-type and H1047R mutant and determining IC50 values for inhibitors
(§2) Recombinant, catalytically active human full length PIK3KA Wild-type and H1047R mutant were purchased as 1:1 complex of N-terminal 6× his tagged p110α (catalytic) and untagged p85α (regulatory subunit) from EMD Millipore Sigma (cat. no. 14-602M and 14-792M, respectively). PIP2diC8 (Avanti Polar Lipids Inc., cat. no. 850185) or Soy PI (Avanti Polar Lipids Inc., cat. No. 840044P) was used as lipid substrate. PIP2diC8 or PI lyophilized powder was dissolved in milliQ water to a concentration of 1 mM just before use. 10 mM stock compounds in DMSO were serially diluted 1:3 to generate a 10-point curve and plated using an acoustic liquid handler system (Echo 550 series instrument, Labcyte). A 10× intermediate compound plate (200 uM starting compound concentration and 10% DMSO) was prepared before starting the reaction. A typical reaction mixture (50 uL) comprised 40 mM HEPES buffer, pH 7.4, 25 mM MgCl2, 0.01% v/v triton-X-100, 1% v/v DMSO, 20 mM NaCl, 1-5 nM WT or H1047R PI3K protein, 20 uM ATP, and 50 uM PIP2diC8 or Soy PI. 1% DMSO buffer alone without test compound was employed as MAX control (full activity in the absence of any inhibitor), and no enzyme control was used to determine the level of background Adenosine 5′-diphosphate (ADP) (MIN control). First, Wild-type (WT) and H1047R mutant protein in kinase buffer with all components except ATP were incubated with or without compound at 27° C. for 1 h. After the pre-incubation, the reaction was initiated by the addition of 20 uL of 50 uM ATP (20 uM final concentration). The reaction was allowed to proceed until about 10% conversion of ATP (2 uM ADP) at 27° C. After that time, 5 uL of reaction was mixed with 5 uL of ADP-Kinase Glo Reagent (ADP-Glo Kinase assay kit, Promega cat. no. V9102) supplemented with MgCl2 10 mM to stop the reaction and deplete the remaining ATP for 40 min at room temperature. Then, 10 uL of Kinase Detection Reagent (ADP-Glo Kinase assay kit, Promega cat. no. V9102) was added to simultaneously convert ADP to ATP and allow the newly synthesized ATP to be measured using a luciferase/luciferin reaction. After 30 min at room temperature the light generated was measured using a luminometer (EnVision plate reader, Perkin Elmer). Process data through Genedata-Screener tool. Relative IC50 values are determined using luminescence units by calculating percent inhibition with respect to on-plate “MIN” and “MAX” controls. Data was analyzed using a 4-parameter nonlinear logistic equation (four-parameter logistic concentration-response curve): Y=bot+[(top−bot)/1+(x/IC50)slope] where Y=% inhibition, X=concentration yielding y% inhibition, Bottom=minimum value of y attained by curve, Top=maximum value of y attained by curve and Slope=steepness of curve at IC50. % Inh=[(median Max−x/median Max−median Min)]·100 IC50: concentration of compound that reduces a given response (ligand binding, enzyme response) by 50%. IC50 relative: concentration giving half the compound's maximum response.
(§3) For IC50 values shown in Table A, “A” means IC50<0.5 μM; “B” means IC50 ranging between 0.5 μM and 1.0 μM; “C” means IC50 ranging between 1 μM and 5 μM; “D” means IC50 ranging between 5 μM and 10 μM; “E” means IC50>10 μM.
Background: ADP-Glo turns the ADP formed in a reaction into a luminescent signal.

Experiment [2] concerns the target T2, PI3K-α (PIK3CA) H1047R mutant (p110α/p85α complex) (Homo sapiens, UniProt P42336, H1047R).
T2 construct: Recombinant, catalytically active human full length PIK3KA Wild-type and H1047R mutant were purchased as 1:1 complex; 6xHis (N); purchased EMD Millipore Sigma 14-792M
The experiment can be described thus: PI3K-Alpha kinase (PIK3CA) biochemical ADP-Glo assay, H1047R mutant. As to conditions: 20 uM ATP, 1 h pre-incubation.
Source text: as §1, §2, §3

Where [3] appears, read: PIP2diC8 lipid substrate (footnote 1).

T2 sequence (P42336 whole entry H1047R): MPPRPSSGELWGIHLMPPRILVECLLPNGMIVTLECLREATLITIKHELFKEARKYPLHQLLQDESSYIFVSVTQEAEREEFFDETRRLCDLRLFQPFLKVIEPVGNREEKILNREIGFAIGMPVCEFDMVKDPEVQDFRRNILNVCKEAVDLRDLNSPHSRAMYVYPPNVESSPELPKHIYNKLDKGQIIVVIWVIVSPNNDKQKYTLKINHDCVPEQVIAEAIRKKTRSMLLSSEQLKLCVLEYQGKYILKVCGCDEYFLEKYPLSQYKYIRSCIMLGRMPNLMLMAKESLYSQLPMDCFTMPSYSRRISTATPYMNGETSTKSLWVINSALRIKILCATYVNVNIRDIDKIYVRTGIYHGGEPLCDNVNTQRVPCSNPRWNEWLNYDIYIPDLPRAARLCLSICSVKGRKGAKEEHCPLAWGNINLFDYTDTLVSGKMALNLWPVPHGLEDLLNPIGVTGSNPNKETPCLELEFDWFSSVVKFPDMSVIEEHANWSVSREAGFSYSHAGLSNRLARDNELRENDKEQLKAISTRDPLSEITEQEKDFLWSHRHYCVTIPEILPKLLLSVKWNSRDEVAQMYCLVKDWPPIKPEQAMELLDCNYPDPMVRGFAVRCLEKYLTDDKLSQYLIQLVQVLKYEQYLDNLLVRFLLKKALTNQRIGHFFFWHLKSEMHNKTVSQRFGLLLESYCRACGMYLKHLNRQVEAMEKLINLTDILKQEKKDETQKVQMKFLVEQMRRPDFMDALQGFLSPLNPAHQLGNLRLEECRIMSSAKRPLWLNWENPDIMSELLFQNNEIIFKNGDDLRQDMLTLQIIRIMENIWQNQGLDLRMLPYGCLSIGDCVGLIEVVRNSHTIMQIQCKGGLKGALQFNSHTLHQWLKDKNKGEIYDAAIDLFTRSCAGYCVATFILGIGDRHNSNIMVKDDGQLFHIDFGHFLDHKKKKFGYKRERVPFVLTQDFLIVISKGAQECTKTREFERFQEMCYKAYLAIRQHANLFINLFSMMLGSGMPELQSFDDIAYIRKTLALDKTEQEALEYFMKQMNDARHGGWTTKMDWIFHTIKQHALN
T2 sequence (P27986 whole entry partner): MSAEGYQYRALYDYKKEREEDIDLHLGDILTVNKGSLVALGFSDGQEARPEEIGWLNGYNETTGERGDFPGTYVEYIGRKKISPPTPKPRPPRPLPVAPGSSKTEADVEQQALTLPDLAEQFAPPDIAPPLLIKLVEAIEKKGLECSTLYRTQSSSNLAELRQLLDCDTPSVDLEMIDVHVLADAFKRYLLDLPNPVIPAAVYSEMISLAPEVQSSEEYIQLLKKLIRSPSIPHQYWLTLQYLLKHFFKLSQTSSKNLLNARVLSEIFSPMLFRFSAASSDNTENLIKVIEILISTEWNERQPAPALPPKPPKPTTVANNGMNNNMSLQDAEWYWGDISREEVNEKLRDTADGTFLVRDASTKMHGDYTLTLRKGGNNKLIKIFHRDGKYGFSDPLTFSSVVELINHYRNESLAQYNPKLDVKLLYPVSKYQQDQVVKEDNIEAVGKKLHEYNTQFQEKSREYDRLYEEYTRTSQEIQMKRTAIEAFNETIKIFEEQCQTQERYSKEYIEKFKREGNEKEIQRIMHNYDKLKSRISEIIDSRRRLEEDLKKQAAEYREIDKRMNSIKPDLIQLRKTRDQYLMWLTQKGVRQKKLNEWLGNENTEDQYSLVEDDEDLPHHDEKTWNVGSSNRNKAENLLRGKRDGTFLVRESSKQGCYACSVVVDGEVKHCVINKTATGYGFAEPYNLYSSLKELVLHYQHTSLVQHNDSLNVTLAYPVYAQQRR

Regarding `Cc1cc(C(C)Nc2ccccc2C(=O)O)c2oc(C3Cc4ccccc4C3)cc(=O)c2c1` (single isomer, unassigned; isomer 2) [Example 19, 2-[1-(2-Indan-2-yl-6-methyl-4-oxo-chromen-8-yl)ethylamino]benzoic acid, Isomer 2], the IC50 is 1 to 5 µM in experiment [1] (Soy PI lipid substrate) and below 0.5 µM in experiment [2] (Soy PI lipid substrate).
The matching figures for `CC(Nc1ccccc1C(=O)O)c1cccc2c(=O)cc(C3CCCCC3)oc12` (single isomer, unassigned; isomer 2) [Example 13, 2-[1-(2-Cyclohexyl-4-oxo-chromen-8-yl)ethylamino]benzoic acid, Isomer 2]: above 10 µM and below 0.5 µM.
The matching figures for `Cc1cc(C(C)Nc2ccccc2C(=O)O)c2oc(C3CCC(F)(F)CC3)cc(=O)c2c1` (single isomer, unassigned; isomer 1) [Example 14, 2-[1-[2-(4,4-Difluorocyclohexyl)-6-methyl-4-oxo-chromen-8-yl]ethylamino]benzoic acid, Isomer 1]: above 10 µM and above 10 µM.
For `Cc1cc(C(C)Nc2ccccc2C(=O)O)c2oc(C3CCC(F)(F)CC3)cc(=O)c2c1` (single isomer, unassigned; isomer 2) [Example 15, 2-[1-[2-(4,4-Difluorocyclohexyl)-6-methyl-4-oxo-chromen-8-yl]ethylamino]benzoic acid, Isomer 2], in that order: above 10 µM and below 0.5 µM.
For `Cc1cc(C(C)Nc2ccccc2C(=O)O)c2oc(C3CCC(C)(C)CC3)cc(=O)c2c1` (single isomer, unassigned; isomer 2) [Example 11, 2-[1-[2-(4,4-Dimethylcyclohexyl)-6-methyl-4-oxo-chromen-8-yl]ethylamino]benzoic acid, Isomer 2], the IC50 in experiment [1] (setting [3]) and in experiment [2] (setting [3]) was above 10 µM in each case.
Turning to `Cc1cc(C(C)Nc2ccccc2C(=O)O)c2oc(C3CCC(F)(F)CC3)c(C)c(=O)c2c1` (single isomer, unassigned; isomer 2) [Example 17, 2-[1-[2-(4,4-Difluorocyclohexyl)-3,6-dimethyl-4-oxo-chromen-8-yl]ethylamino]benzoic acid, Isomer 2], the IC50 in experiment [1] (Soy PI lipid substrate) and in experiment [2] (Soy PI lipid substrate) was above 10 µM throughout.
Consider `CC(Nc1ccccc1C(=O)O)c1cccc2c(=O)cc(C3CCCCC3)oc12` (single isomer, unassigned; isomer 1) [Example 12, 2-[1-(2-Cyclohexyl-4-oxo-chromen-8-yl)ethylamino]benzoic acid, Isomer 1], for which the IC50 in experiment [1] (setting [3]) and in experiment [2] (setting [3]) was above 10 µM in each case.
`Cc1cc(C(C)Nc2ccccc2C(=O)O)c2oc(C3Cc4ccccc4C3)c(C)c(=O)c2c1` (single isomer, unassigned; isomer 1) [Example 21, 2-[1-(2-Indan-2-yl-3,6-dimethyl-4-oxo-chromen-8-yl)ethylamino]benzoic acid, Isomer 1]: the IC50 in experiment [1] (Soy PI lipid substrate) is 1 to 5 µM; in experiment [2] (Soy PI lipid substrate), below 0.5 µM.
For `Cc1cc(C(C)Nc2ccccc2C(=O)O)c2oc(C3(c4ccccc4)CC3)cc(=O)c2c1` (stereo not drawn) [Example 7, 2-[1-[6-Methyl-4-oxo-2-(1-phenylcyclopropyl)chromen-8-yl]ethylamino]benzoic acid; 2,2,2-trifluoroacetic acid], in that order: above 10 µM and below 0.5 µM.
On to `Cc1cc(C(C)Nc2ccccc2C(=O)O)c2oc(C3Cc4ccccc4C3)cc(=O)c2c1` (single isomer, unassigned; isomer 1) [Example 18, 2-[1-(2-Indan-2-yl-6-methyl-4-oxo-chromen-8-yl)ethylamino]benzoic acid, Isomer 1], for which the IC50 in experiment [1] (Soy PI lipid substrate) was above 10 µM; in experiment [2] (Soy PI lipid substrate), 1 to 5 µM.
For `Cc1cc(C(C)Nc2ccccc2C(=O)O)c2oc(C3CCCCC3)cc(=O)c2c1` (single isomer, unassigned; isomer 2) [Example 9, 2-[1-(2-Cyclohexyl-6-methyl-4-oxo-chromen-8-yl)ethylamino]benzoic acid, Isomer 2], the IC50 in experiment [1] (setting [3]) and in experiment [2] (setting [3]) was below 0.5 µM each time.
As to `Cc1cc(C(C)Nc2ccccc2C(=O)O)c2oc(C3CCCCC3)cc(=O)c2c1` (single isomer, unassigned; isomer 1) [Example 8, 2-[1-(2-Cyclohexyl-6-methyl-4-oxo-chromen-8-yl)ethylamino]benzoic acid, Isomer 1], the IC50 was above 10 µM in experiment [1] (setting [3]) and 1 to 5 µM in experiment [2] (setting [3]).
As to `Cc1cc(C(C)Nc2ccccc2C(=O)O)c2oc(C3CCC(F)(F)CC3)c(C)c(=O)c2c1` (single isomer, unassigned; isomer 1) [Example 16, 2-[1-[2-(4,4-Difluorocyclohexyl)-3,6-dimethyl-4-oxo-chromen-8-yl]ethylamino]benzoic acid, Isomer 1], the figures for the half-maximal inhibitory concentration (IC50) in experiment [1] (Soy PI lipid substrate) and in experiment [2] (Soy PI lipid substrate) were 0.5 to 1 µM and below 0.5 µM, respectively.
`Cc1cc(C(C)Nc2ccccc2C(=O)O)c2oc(C3CCC(C)(C)CC3)cc(=O)c2c1` (single isomer, unassigned; isomer 1) [Example 10, 2-[1-[2-(4,4-Dimethylcyclohexyl)-6-methyl-4-oxo-chromen-8-yl]ethylamino]benzoic acid, Isomer 1]: the IC50 in experiment [1] (setting [3]) was 1 to 5 µM; in experiment [2] (setting [3]), below 0.5 µM.
Regarding `Cc1cc(C(C)Nc2ccccc2C(=O)O)c2oc(C3Cc4ccccc4C3)c(C)c(=O)c2c1` (single isomer, unassigned; isomer 2) [Example 22, 2-[1-(2-Indan-2-yl-3,6-dimethyl-4-oxo-chromen-8-yl)ethylamino]benzoic acid, Isomer 2], the IC50 in experiment [1] (Soy PI lipid substrate) and in experiment [2] (Soy PI lipid substrate) was above 10 µM throughout.
